We go through 1 molecule from paper PMC6934184, “Selective DNA-PKcs inhibition extends the therapeutic index of localized radiotherapy and chemotherapy” (The Journal of Clinical Investigation, 2019).

The experiment addresses T1, PRKG2 (PKG2) (Homo sapiens, UniProt Q13237).
T1 construct: purchased Thermo Fisher Scientific (Life Technologies) SelectScreen
Nature of the experiment: SelectScreen Z'LYTE. In kind it is biochemical. The method, boiled down:
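Percent values come from Thermo SelectScreen profiling of NU5455, combining activity and binding assays. CSF1R was run in Z'LYTE format at Km app ATP, and CAMK1 in Adapta format with ATP listed at 10.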

T1 sequence (Q13237 whole entry): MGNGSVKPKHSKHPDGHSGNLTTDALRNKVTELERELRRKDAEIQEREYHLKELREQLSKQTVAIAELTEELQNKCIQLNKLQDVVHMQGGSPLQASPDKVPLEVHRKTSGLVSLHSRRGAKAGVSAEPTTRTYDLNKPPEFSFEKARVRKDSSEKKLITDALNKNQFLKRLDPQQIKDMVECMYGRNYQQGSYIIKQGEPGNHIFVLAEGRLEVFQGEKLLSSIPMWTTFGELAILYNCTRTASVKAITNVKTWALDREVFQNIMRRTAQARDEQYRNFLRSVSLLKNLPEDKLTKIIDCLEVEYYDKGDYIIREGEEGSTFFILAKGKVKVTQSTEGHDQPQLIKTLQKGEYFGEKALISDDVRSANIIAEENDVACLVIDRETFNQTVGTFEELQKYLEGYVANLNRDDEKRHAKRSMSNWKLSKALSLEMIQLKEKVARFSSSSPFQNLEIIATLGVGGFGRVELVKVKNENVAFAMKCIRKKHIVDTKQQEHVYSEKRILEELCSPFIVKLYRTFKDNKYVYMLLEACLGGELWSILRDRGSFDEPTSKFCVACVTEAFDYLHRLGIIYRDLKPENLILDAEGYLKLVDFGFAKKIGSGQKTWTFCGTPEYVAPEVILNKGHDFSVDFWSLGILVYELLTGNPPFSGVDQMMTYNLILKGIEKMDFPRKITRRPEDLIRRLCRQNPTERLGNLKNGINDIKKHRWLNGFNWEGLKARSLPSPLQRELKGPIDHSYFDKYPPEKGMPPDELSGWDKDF

The inhibition is the drop in the measured response relative to a control, in per cent. Regarding `CN(C(=O)CN1CCOCC1)c1ccc2sc3c(-c4cccc5c(=O)cc(N6CC7CCC(C6)O7)oc45)cccc3c2c1` [NU5455], the inhibition at 1 µM is -5.1%.
